Measurements reported in ChEMBL document CHEMBL1201862, “PubChem BioAssay data set” (2004).
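Growth conditions: 96-well plates. Treatment: test compound, 48 hours, 5 concentrations. Analysis: linear interpolation between bracketing concentrations; unreached endpoints set to highest concentration. The concentration for 50% growth inhibition is given as GI50.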 Active and inactive are the calls of the source. Rule as the data show it: active = GI50 up to about 1.1 µM and inactive = higher.

Tests used:
Test in all cases: growth of human tumour cells (NCI), 48 h
[1] = system: HCT-15
[2] = system: PC-3
[3] = system: DU-145
[4] = system: A549
[5] = system: SK-MEL-5
[6] = system: NCI-H522
[7] = system: BT-549
[8] = system: SF-295
[9] = system: NCI-H226
[10] = system: HCC 2998
[11] = system: TK-10
[12] = system: NCI-H23
[13] = system: Malme-3M
[14] = system: HOP-92
[15] = system: HCT-116
[16] = system: SF-268
[17] = system: OVCAR-8
[18] = system: CCRF-CEM
[19] = system: HOP-62
[20] = system: Hs-578T

SMILES	GI50 [1]	GI50 [2]	GI50 [3]	GI50 [4]	GI50 [5]	GI50 [6]	GI50 [7]	GI50 [8]	GI50 [9]	GI50 [10]	GI50 [11]	GI50 [12]	GI50 [13]	GI50 [14]	GI50 [15]	GI50 [16]	GI50 [17]	GI50 [18]	GI50 [19]	GI50 [20]
O=C(COc1ccc(OCC(=O)N2C(=O)CS/C2=N\c2ccccc2)cc1)N1C(=O)CS/C1=N\c1ccccc1	28.1 µM	14.8 µM (inactive)	30.8 µM (inactive)	23.6 µM (inactive)	11.6 µM (inactive)	11.1 µM (inactive)	18 µM (inactive)	33.3 µM (inactive)	26.5 µM (inactive)	14.9 µM (inactive)	56.9 µM (inactive)	19.5 µM (inactive)	4 µM (inactive)	26.2 µM (inactive)	10.6 µM (inactive)	27.5 µM (inactive)				
CCCCCCCCCCCCCCCCCC(=O)OCC(CN(C)CCN(C)C)OC(=O)CCCCCCCCCCCCCCCCC (centres undefined)	> 100 µM			55.3 µM (inactive)	> 100 µM (inactive)	> 100 µM (inactive)		63.4 µM (inactive)	> 100 µM (inactive)	75.9 µM (inactive)	> 100 µM (inactive)	> 100 µM (inactive)	> 100 µM (inactive)	> 100 µM (inactive)	55.2 µM (inactive)	45.3 µM (inactive)	72.6 µM (inactive)	42.9 µM (inactive)	> 100 µM (inactive)	
CN1C(=O)N(C)C2(CCN(CCCCCCF)CC2)C1=O	> 100 µM	> 100 µM (inactive)	> 100 µM (inactive)	> 100 µM (inactive)	> 100 µM (inactive)	> 100 µM (inactive)	23.3 µM (inactive)	> 100 µM (inactive)	> 100 µM (inactive)	> 100 µM (inactive)	> 100 µM (inactive)	> 100 µM (inactive)	> 100 µM (inactive)		> 100 µM (inactive)	> 100 µM (inactive)	> 100 µM (inactive)	> 100 µM (inactive)	> 100 µM (inactive)	
CC(=O)N1[C@H](C(=O)O)CS[C@H]1c1ccncc1	> 100 µM			> 100 µM (inactive)	> 100 µM (inactive)			> 100 µM (inactive)	> 100 µM (inactive)	> 100 µM (inactive)	> 100 µM (inactive)	> 100 µM (inactive)	> 100 µM (inactive)	> 100 µM (inactive)	> 100 µM (inactive)	> 100 µM (inactive)	32.7 µM (inactive)	> 100 µM (inactive)	> 100 µM (inactive)	
CCCCCC(C[N+]1(C)CCOCC1)C(=O)/C=C/c1ccccc1 (centres undefined)	8.34 µM			22.9 µM (inactive)	13.4 µM (inactive)	3.03 µM (inactive)		7.74 µM (inactive)	10.8 µM (inactive)	18.2 µM (inactive)	20.3 µM (inactive)	14.7 µM (inactive)	16.9 µM (inactive)	18.7 µM (inactive)	3.41 µM (inactive)	9.64 µM (inactive)	12.7 µM (inactive)	2.71 µM (inactive)	30 µM (inactive)	
CCOC(=O)C1=C(NC)OC/C1=N\NC(=O)c1ccccc1O				32.1 µM (inactive)	35.8 µM (inactive)	9.31 µM (inactive)		50.9 µM (inactive)	13.3 µM (inactive)	25.1 µM (inactive)	> 100 µM (inactive)	6.87 µM (inactive)	26.9 µM (inactive)	26.1 µM (inactive)	9.29 µM (inactive)	6.53 µM (inactive)	24.2 µM (inactive)	14.9 µM (inactive)	28 µM (inactive)	
O=C1Sc2sc(=S)sc2SC1c1ccccc1 (centres undefined)	19.4 µM			> 100 µM (inactive)	> 100 µM (inactive)	14.2 µM (inactive)		> 81.1 µM (inactive)	> 81.8 µM (inactive)	> 89.7 µM (inactive)		82.6 µM (inactive)	> 49.3 µM (inactive)	36.6 µM (inactive)	> 59 µM (inactive)	46.6 µM (inactive)	59 µM (inactive)	33 µM (inactive)	> 100 µM (inactive)	
C#C[C@]1(O)CCC2C3CCc4cc(Oc5nc(F)nc(-c6c7cc8ccccc8cc7c7n6CCS7)n5)ccc4C3CCC21C (some centres undefined)				41.3 µM (inactive)	25.4 µM (inactive)	21.3 µM (inactive)		34 µM (inactive)	> 100 µM (inactive)	85.5 µM (inactive)	71.3 µM (inactive)	54.1 µM (inactive)	53.6 µM (inactive)	> 100 µM (inactive)	33 µM (inactive)	56.9 µM (inactive)	53.8 µM (inactive)	49.3 µM (inactive)	43.3 µM (inactive)	
CSC(SC)=C1Sc2cccc(Cl)c2S1	48.3 µM			> 100 µM (inactive)	33.3 µM (inactive)	26.1 µM (inactive)		56.5 µM (inactive)	> 100 µM (inactive)	15.8 µM (inactive)	76 µM (inactive)	55.2 µM (inactive)	> 100 µM (inactive)	15.8 µM (inactive)	41.5 µM (inactive)	> 100 µM (inactive)	92.5 µM (inactive)	28.8 µM (inactive)	> 100 µM (inactive)	
COc1cccc(/C=C2\S/C(=N/Nc3nc(C)c(C)s3)NC2=O)c1O	> 100 µM		> 100 µM (inactive)	> 100 µM (inactive)	50.2 µM (inactive)		> 100 µM (inactive)	> 100 µM (inactive)	> 100 µM (inactive)	61.5 µM (inactive)	> 100 µM (inactive)	> 100 µM (inactive)		> 100 µM (inactive)	> 100 µM (inactive)	> 100 µM (inactive)	36.6 µM (inactive)		> 100 µM (inactive)	
COc1cc2c3c(c1OC)/C(=N/OS(=O)(=O)c1ccc(C)cc1)CC3N(S(=O)(=O)c1ccc(C)cc1)CC2 (centres undefined)				> 100 µM (inactive)	> 100 µM (inactive)	> 100 µM (inactive)		> 100 µM (inactive)	> 100 µM (inactive)	> 100 µM (inactive)	> 100 µM (inactive)	> 100 µM (inactive)	> 100 µM (inactive)	> 100 µM (inactive)	> 100 µM (inactive)	> 100 µM (inactive)	93.3 µM (inactive)	> 100 µM (inactive)	> 100 µM (inactive)	
Nc1cc(N2CCOCC2)nc(=O)n1-c1ccccc1	> 100 µM	> 100 µM (inactive)	> 100 µM (inactive)	> 100 µM (inactive)	> 100 µM (inactive)		> 100 µM (inactive)	> 100 µM (inactive)	> 100 µM (inactive)	> 100 µM (inactive)		> 100 µM (inactive)		> 100 µM (inactive)	> 100 µM (inactive)		> 100 µM (inactive)	> 100 µM (inactive)	> 100 µM (inactive)	
CCOC(=O)Cc1ccc2c(c1O)C(=O)c1c(ccc(CC(=O)OCC)c1O)C2=O				> 100 µM (inactive)	20.4 µM (inactive)	> 100 µM (inactive)		> 100 µM (inactive)	43.5 µM (inactive)	> 100 µM (inactive)	31.9 µM (inactive)	> 100 µM (inactive)	30.1 µM (inactive)	> 100 µM (inactive)	> 100 µM (inactive)	> 100 µM (inactive)	> 100 µM (inactive)	59 µM (inactive)	> 100 µM (inactive)	
O/N=C(\CC(O)(C(F)(F)F)C(F)(F)F)c1cccc(Cl)c1	32.4 µM	29.9 µM (inactive)	40.6 µM (inactive)	35.9 µM (inactive)	16.6 µM (inactive)	30.5 µM (inactive)		38.7 µM (inactive)	20.8 µM (inactive)	60 µM (inactive)	22.3 µM (inactive)	20.5 µM (inactive)	33.7 µM (inactive)	23.1 µM (inactive)	37.4 µM (inactive)		37.4 µM (inactive)	19.8 µM (inactive)		21.5 µM (inactive)
S=P1(c2ccccc2)Nc2ccc(Cl)cc2N1 (centres undefined)	58.5 µM			> 100 µM (inactive)	> 100 µM (inactive)	36.5 µM (inactive)		> 100 µM (inactive)	> 100 µM (inactive)	> 100 µM (inactive)	> 100 µM (inactive)	> 100 µM (inactive)	> 100 µM (inactive)	20.2 µM (inactive)		> 100 µM (inactive)		4.45 µM (inactive)	> 100 µM (inactive)	
O=C(Cl)c1cc([N+](=O)[O-])cc([N+](=O)[O-])c1	> 100 µM			> 100 µM (inactive)	> 100 µM (inactive)	> 100 µM (inactive)		> 100 µM (inactive)	> 100 µM (inactive)	> 100 µM (inactive)	> 100 µM (inactive)	> 100 µM (inactive)	> 100 µM (inactive)	> 100 µM (inactive)	> 100 µM (inactive)	> 100 µM (inactive)		> 100 µM (inactive)	> 100 µM (inactive)	
CC(=O)[O-].[O-]c1c(Cl)cc(Cl)cc1/C=N/Nc1ccccn1.[Zn+2]	0.403 µM			3.65 µM (inactive)	0.593 µM (active)	0.41 µM (active)		1.47 µM (inactive)	> 100 µM (inactive)	9.86 µM (inactive)		0.32 µM (active)	0.76 µM (active)	0.316 µM (active)	0.338 µM (active)	0.94 µM (active)	0.237 µM (active)	0.244 µM (active)	1.81 µM (inactive)	
O=C1C=CC(=C(c2ccc(O)cc2)c2ccc(O)cc2)C=C1 [AURIN]	14.4 µM			22 µM (inactive)	7.06 µM (inactive)	10.1 µM (inactive)		12.5 µM (inactive)	17.4 µM (inactive)	14.4 µM (inactive)	19 µM (inactive)	8.57 µM (inactive)	12 µM (inactive)	2.07 µM (inactive)	10.8 µM (inactive)	13.2 µM (inactive)	12.7 µM (inactive)	2.39 µM (inactive)	20.2 µM (inactive)	
